Results on 14 molecules are retold here after patent publication US4735959A, “Carboxylic acid amides and pharmaceutical compositions containing them” (Dr. Karl Thomae GmbH, priority 1981, dated 1988).

Like-named read-outs stand apart in the source and are kept apart here.

For the assay, the system named is blood-sugar. The assay can be described thus: Blood-sugar lowering activity in starved female rats after oral administration. The class given is in vivo. The note with it: for change in vivo at 1 mg/kg / change in vivo at 5 mg/kg / change in vivo at 0.6 mg/kg / change in vivo at 10 mg/kg: Rattus norvegicus, po, read-out: Blood-sugar lowering activity, percent as compared with the controls; for change in vivo at 0.6 mg/kg: 0.6 mg/kg orally; for change in vivo at 10 mg/kg: 10 mg/kg orally (footnote *). The procedure: The blood-sugar lowering activity of the test compounds was determined in home-bred female rats with weights of from 180 to 220 grams. Twenty-four hours before starting the test the animals were starved. Before the test the compounds were suspended in 1.5% methyl cellulose and administered to the animals by means of an esophageal tube.
Blood was taken from the retroorbital plexus vein before administration of the test compounds as well as each of 1, 2, 3, and 4 hours after administration. Fifty microliters of each sample were deproteinized with 0.5 ml of 0.33N perchloric acid and centrifuged. The glucose content was determined in the supernatant according to the Hexokinase method by means of an analysis photometer. The statistical evalulation was performed with the t-test according to Student with p=0.05.

Setting [1] is: 1 mg/kg orally, 1 hour, n.s. = not statistically significant.
Where [2] appears, read: 1 mg/kg orally, 2 hours, n.s. = not statistically significant.
Where [3] appears, read: 1 mg/kg orally, 3 hours, n.s. = not statistically significant.
Setting [4] is: 1 mg/kg orally, 4 hours, n.s. = not statistically significant.
The mark [5] stands for this setting: 5 mg/kg orally, 1 hour, n.s. = not statistically significant.
The mark [6] stands for this setting: 5 mg/kg orally, 2 hours, n.s. = not statistically significant.
[7] abbreviates: 5 mg/kg orally, 3 hours, n.s. = not statistically significant.
Where [8] appears, read: 5 mg/kg orally, 4 hours, n.s. = not statistically significant.
Where [9] appears, read: 3 hours, n.s. = not statistically significant.
Where [10] appears, read: 4 hours, n.s. = not statistically significant.

On to `CC(NC(=O)Cc1ccc(C(=O)O)cc1)c1ccccc1N1CCCCC1` (single isomer, unassigned; (+)) [AU, (+)-4-[(1-(2-Piperidino-phenyl)-1-ethyl)-aminocarbonylmethyl]-benzoic acid], for which the change in vivo at 1 mg/kg reads like this: under setting [1], -41%; under setting [2], -22%; under setting [3], -17%; under setting [4], -15%.

`CCCC(NC(=O)Cc1ccc(C(=O)O)cc1)c1ccccc1N1CCCCC1` (single isomer, unassigned; (+)) [K, (+)-4-[(1-(2-Piperidino-phenyl)-1-butyl)-aminocarbonylmethyl]-benzoic acid]: the change in vivo at 1 mg/kg is -41% under setting [1], -43% under setting [2], -38% under setting [3] and -31% under setting [4].

`CCCC(NC(=O)Cc1ccc(C(=O)OCC)cc1)c1ccccc1N1CCCCC1` (single isomer, unassigned; (+)) [L, (+)-4-[(1-(2-Piperidino-phenyl)-1-butyl)-aminocarbonylmethyl]-benzoic acid ethyl ester]: the “Blood-sugar lowering activity, percent as compared with the controls” value (shortened to “Blood-sugar lowering activity, percent”) under setting [4] is recorded as “n.s”. Besides, the change in vivo at 1 mg/kg under setting [1] was -14%, the change in vivo at 1 mg/kg under setting [2] is -18% and the change in vivo at 1 mg/kg under setting [3] was -14%. Besides, the change in vivo at 5 mg/kg by setting is: under setting [5], -42%; under setting [6], -45%; under setting [7], -31%; under setting [8], -22%.

Take `O=C(Cc1ccc(C(=O)O)cc1)NC(c1ccccc1)c1ccccc1N1CCCCC1` (single isomer, unassigned; (-)) [AW, (-)-4-[(2-Piperidino-benzhydryl)-aminocarbonylmethyl]-benzoic acid]: the change in vivo at 0.6 mg/kg by setting is: (1 hour) -40%; (2 hours) -34%; (3 hours) -31%; (4 hours) -26%.

Turning to `O=C(Cc1ccc(C(=O)O)cc1)NC(c1cccc(Cl)c1)c1ccccc1N1CCCCC1` (stereo not drawn) [AF, 4-[(α-(3-Chloro-phenyl)-2-piperidino-benzyl)-aminocarbonylmethyl]-benzoic acid], the “Blood-sugar lowering activity, percent” value runs as follows: under setting [3], “n.s”; under setting [4], “n.s”. In addition, the change in vivo at 1 mg/kg is -17% under setting [1] and -19% under setting [2]. Moreover, the change in vivo at 5 mg/kg is -43% under setting [5], -39% under setting [6], -30% under setting [7] and -26% under setting [8].

For `O=C(Cc1ccc(C(=O)O)cc1)NC(c1ccncc1)c1ccccc1N1CCCCC1` (stereo not drawn) [AH, 4-[(2-Piperidino-α-(4-pyridyl)-benzyl)-aminocarbonylmethyl]-benzoic acid], the “Blood-sugar lowering activity, percent” value under setting [3] is on record as “n.s”; the “Blood-sugar lowering activity, percent” value under setting [4] is reported as “n.s”; the “Blood-sugar lowering activity, percent” value under setting [8] is given as “n.s”. Also, the change in vivo at 1 mg/kg is -26% under setting [1] and -14% under setting [2]. In addition, the change in vivo at 5 mg/kg is, setting by setting: under setting [5], -41%; under setting [6], -37%; under setting [7], -20%.

For `O=C(Cc1ccc(C(=O)O)cc1)NC(c1ccccc1)c1c(Cl)cccc1N1CCCCC1` (stereo not drawn) [AJ, 4-[(6-Chloro-α-phenyl-2-piperidino-benzyl)-aminocarbonylmethyl]-benzoic acid], the change in vivo at 1 mg/kg was -35% under setting [1], -34% under setting [2], -28% under setting [3] and -20% under setting [4]. The change in vivo at 5 mg/kg is -44% under setting [5], -40% under setting [6], -39% under setting [7] and -40% under setting [8].

In the case of `O=C(O)C=Cc1ccc(CC(=O)NC(c2ccccc2)c2ccccc2N2CCCCC2)cc1` (stereo not drawn) [AK, 4-[(α-Phenyl-2-piperidino-benzyl)-aminocarbonylmethyl]-cinnamic acid], the change in vivo at 1 mg/kg under setting [1] was -32%, the change in vivo at 1 mg/kg under setting [2] is -19%, the change in vivo at 1 mg/kg under setting [3] was -10% and the change in vivo at 1 mg/kg under setting [4] was -17%. Moreover, the change in vivo at 10 mg/kg reads like this: (1 hour) -48%; (2 hours) -47%; under setting [9], -40%; under setting [10], -45%.

Regarding `O=C(O)CCc1ccc(CC(=O)NC(c2ccccc2)c2ccccc2N2CCCCC2)cc1` (stereo not drawn) [AL, 3-{4-[(α-Phenyl-2-piperidino-benzyl)-aminocarbonylmethyl]-phenyl}-propionic acid], the change in vivo at 1 mg/kg is -40% under setting [1], -31% under setting [2], -23% under setting [3] and -12% under setting [4]. Moreover, the change in vivo at 10 mg/kg reads like this: (1 hour) -43%; (2 hours) -41%; under setting [9], -38%; under setting [10], -34%.

For the molecule `O=C(Cc1ccc(C(=O)O)cc1)NC(c1ccccc1)c1ccc(Cl)cc1N1CCCCC1` (stereo not drawn) [AM, 4-[(4-Chloro-α-phenyl-2-piperidino-benzyl)-aminocarbonylmethyl]-benzoic acid], the “Blood-sugar lowering activity, percent” value is on record as “n.s” under setting [3] and “n.s” under setting [4]. Also, the change in vivo at 1 mg/kg was -11% under setting [1] and -13% under setting [2]. Besides, the change in vivo at 5 mg/kg by setting is: under setting [5], -34%; under setting [6], -35%; under setting [7], -32%; under setting [8], -29%.

For the molecule `Cc1cccc(N2CCCCC2)c1C(NC(=O)Cc1ccc(C(=O)O)cc1)c1ccccc1` (stereo not drawn) [AN, 4-[(6-Methyl-α-phenyl-2-piperidino-benzyl)-aminocarbonylmethyl]-benzoic acid], the “Blood-sugar lowering activity, percent” value under setting [3] is reported as “n.s” and the “Blood-sugar lowering activity, percent” value under setting [4] is reported as “n.s”. Further, the change in vivo at 1 mg/kg was -27% under setting [1] and -24% under setting [2]. The change in vivo at 5 mg/kg reads like this: under setting [5], -39%; under setting [6], -35%; under setting [7], -27%; under setting [8], -26%.

As to `Cc1ccc(C(NC(=O)Cc2ccc(C(=O)O)cc2)c2ccccc2)c(N2CCCCC2)c1` (stereo not drawn) [AO, 4-[(4-Methyl-α-phenyl-2-piperidino-benzyl)-aminocarbonylmethyl]-benzoic acid], the change in vivo at 1 mg/kg was -17% under setting [2], -15% under setting [3] and -11% under setting [4]. Moreover, the change in vivo at 5 mg/kg was -37% under setting [5], -34% under setting [6], -32% under setting [7] and -31% under setting [8].

Regarding `O=Cc1ccc(CC(=O)NC(c2ccccc2)c2ccccc2N2CCCCC2)cc1` (stereo not drawn) [AP, 4-[(α-Phenyl-2-piperidino-benzyl)-aminocarbonylmethyl]-benzaldehyde], the change in vivo at 1 mg/kg under setting [1] is -26%, the change in vivo at 1 mg/kg under setting [2] was -28%, the change in vivo at 1 mg/kg under setting [3] was -22% and the change in vivo at 1 mg/kg under setting [4] is -17%.

`CC1CCCCN1c1ccccc1C(NC(=O)Cc1ccc(C(=O)O)cc1)c1ccccc1` (stereo not drawn) [AQ, 4-[(2-(2-Methyl-piperidino)-α-phenyl-benzyl)-aminocarbonylmethyl]-benzoic acid]: the “Blood-sugar lowering activity, percent” value is “n.s” under setting [3] and “n.s” under setting [4]. Also, the change in vivo at 1 mg/kg is -16% under setting [1] and -11% under setting [2]. The change in vivo at 5 mg/kg by setting is: under setting [5], -32%; under setting [6], -31%; under setting [7], -24%; under setting [8], -19%.
